The source of these data is patent US6162809A, “Pyridylthio compounds for controlling helicobacter bacteria” (Byk Gulden Lomberg Chemische Fabrik GmbH, priority 1994, dated 2000).

Where a name gives a salt, the structure may show the parent alone. A value given as a limit tells only on which side of the number the result lay.

The subject of the first assay is Helicobacter pylori. Briefly: activity against Helicobacter pylori (Columbia agar, growth period of 4 days). The following applies: Columbia agar (Oxoid), approximate values. In kind it is cell-based.
With “4-[3-(4-Phenyl-1-piperazinyl)propylthio]-2-[(4-pyridinylthio)methyl]pyridine [Compound 16]”, the “Approx. MIC 50” value is recorded as ≤ 0,5 μg/ml.

The assay is the same for the next values; noted with them: Helicobacter pylori, 96 h, Columbia agar (Oxoid), approximate values, read-out: Approx. MIC 50.
Take `Cc1ncsc1CCSc1ccnc(CSc2ccccn2)c1C` [Compound 3, 3-Methyl-4-[2-(4-methyl-5-thiazolyl)ethylthio]2-[(2-pyridinylthio)methyl]pyridine]: the MIC50 was no more than 0.5 µg/mL. Same read-out and setting: the result for `Cc1c(SCCCSc2ccncc2)ccnc1CSc1ccccn1` [Compound 6] reads no more than 0.5 µg/mL; that for `Cc1c(SCc2ccco2)ccnc1CSc1ccncc1` [Compound 11, 4-(2-Furylmethylthio)-3-methyl-2-[(4-pyridinylthio)methyl]pyridine], no more than 0.5 µg/mL.

As to `Cc1c(SCCCSc2ccncc2)ccnc1CSc1ccncc1` [Compound 14, 3-Methyl-2-[(4-pyridinylthio)methyl]-4-[5-(4-pyridinyl)-1,5-dithiapentyl]pyridine], the MIC50 is no more than 0.5 µg/mL. Turning to `Cc1c(SCCCSC(=S)N(C)C)ccnc1CSc1ccncc1` [Compound 15, 4-[(3-Dimethyldithiocarbamoyl)propylthio]-3-methyl-2-[(4-pyridinylthio)methyl]pyridine], the MIC50 was no more than 0.5 µg/mL.

As to `Cc1c(SCCCSCCn2c([N+](=O)[O-])cnc2C)ccnc1CSc1ccncc1` [Compound 29, 4-[[7-(2-Methyl-5-nitroimidazol-1-yl)-1,5-dithiahept-1-yl]-3-methyl]-2-[(4-pyridinylthio)methyl]-pyridine dihydrochloride], the MIC50 is no more than 0.5 µg/mL. Still for that read-out and setting: under `Cc1c(SCCCn2c([N+](=O)[O-])cnc2C)ccnc1CSc1ncccn1` [Compound 32, 3-Methyl-4-[3-(2-methyl-5-nitroimidazol-1-yl)propylthio]-2-[(2-pyrimidinylthio)methyl]pyridine] stands no more than 0.5 µg/mL.
